Source: PMC9721424, “Novel N-methylsulfonyl-indole derivatives: biological activity and COX-2/5-LOX inhibitory effect with improved gastro protective profile and reduced cardio vascular risks” (Journal of Enzyme Inhibition and Medicinal Chemistry, 2022)
Marks after values point to notes of the source that are not given here.

Columns and labels:
[1] = test system: heart function biomarkers (LDH, CK-MB, and troponin); assay: Cardiac function biomarkers in rat serum; assay type: in vivo, rats; settings: 50 mg/kg/day p.o. for 2 weeks, mean ± SEM
Procedure: (§1) Eighteen rats were divided into three groups at random (6 animals in each group). The first group was given a vehicle and served as normal control. […] Ketamine (100 mg/kg) was used to anaesthetise the animals on the 15th day. Blood samples were obtained from the retro orbital, allowed to clot, centrifuged at 1000 g for 15 min, and utilised to examine heart function biomarkers (LDH, CK-MB, and troponin). The abdomen of each rat was opened, and the heart was extracted and washed in ice-cold physiological saline before being harnessed for histological investigation.

heart = assay: Histopathological examination of the heart; assay type: in vivo; settings: rats, two weeks administration, H&E stain
Procedure: as §1

stomach mucosa = assay: Ulcerogenic liability (ulcer index); assay type: in vivo; settings: rats, 50 mg/kg dosage for three consecutive days, mean of 6 rats
Procedure: In this study, adult male Wister albino rats weighing 160–180 g were used. Before any experimental procedure, rats were given 14 days to acclimate. These rats were maintained in a controlled setting with food and water available. All experiments were conducted in accordance with laboratory animal care guidelines. All experimental procedures were carried out in accordance with the regulations of the Committee of Ethics for Scientific Research on Living Organisms, Faculty of Pharmacy, Nahda University, Beni-Suef (NUB). The approval number was (NUB-019–025). […] Before drug administration, rats were fasted for 18 h and then separated into four groups. The control group received a suspension of the vehicle (10% DMSO in saline was given P.O (100 mg/kg) once daily). […] Rats were given the required dose for three consecutive days. Following the last dose, the stomachs of each rat were dissected and opened via the greater curvature and rinsed with saline. For investigation, the dissected stomach was stretched with pins on a cork board. Through illuminated magnifying lenses, the stomach mucosa was examined for the existence of ulcers. Cho and Ogle’s method[45]^,[46] was used to calculate the ulcer index.

stomach = assay: Histopathological examination of stomach; assay type: in vivo, rats; settings: rat, in vivo
Procedure: In brief, the stomachs of each animal group’s rat were fixed in 10% neutral buffered formalin for 48 h. The sections were then dehydrated, cleared, fixed in paraffin, sectioned ([…]), and stained with H&E stain.

[2] = test system: Gram-positive bacteria, Gram-negative bacteria, and yeast fungus; assay: Disc diffusion antimicrobial screening, whole panel; assay type: cell-based; settings: all tested Gram-positive and Gram-negative bacteria, read-out: diameters of inhibition zones
Procedure: All compounds were screened for their antimicrobial activity at the Microbiology and Immunology Department, Faculty of Pharmacy, Beni-Suef University. The antimicrobial activity screening was carried out using the disc diffusion method, as described earlier, with some adjustments.
For each indicator microbe, a solution of half McFarland turbidity was prepared in sterile saline, followed by surface streaking of the strains on Mueller-Hinton agar with a sterile cotton swab. Then, sterile filter paper discs (5 mm diameter) preloaded with 100 µg of each compound were applied to the surface of the pre-inoculated plates. Then, the plates were chilled at 4 °C for 100 min before being incubated overnight at the proper temperature for microbial growth. Finally, the diameter of the inhibition zones around each disc was measured to evaluate the antimicrobial activity of the compounds. Ciprofloxacin was used as a standard antibacterial agent at a concentration of 20 µg/disc. Furthermore, DMSO-loaded discs were used as a negative control.

[3] = antimicrobial and antifungal activity; cited from earlier work

Cc1ccc(-c2cc(C(F)(F)F)nn2-c2ccc(S(N)(=O)=O)cc2)cc1 [Celecoxib, reference compound]
CK-MB [1]: 0.635 ± 0.065^a ng/ml
LDH [1]: 690 ± 08^a U/L
Troponin I [1]: 0.1500 ± 0.0420^a ng/ml
heart histopathology finding (heart): scattered inflamed cardiac muscle fibres with vacuolar degenerated myocytes
Ulcer index (stomach mucosa): 3.79^b
Ulcer index (stomach mucosa; listed as celecoxib): 3.79
stomach histopathology finding (stomach): multiple complete ulcers and superficial mucosal erosions with disrupted mucous layer

O=C(O)c1cn(C2CC2)c2cc(N3CCNCC3)c(F)cc2c1=O [ciprofloxacin]
zone of inhibition at 20 µg/disc [2]: 34 to 48 mm
MIC [3]: < 3.90 mg/L
